In PubChem BioAssay (NCI) one finds GI50 and TGI data, which are given here for twelve compounds.

Assay in all cases: NCI anticancer screen, dose series, 48 h
For experiment [1], the system named is EKVX NSCLC.
For experiment [2], the system named is SF-539 CNS.
In experiment [3] the test system is SF-268 CNS.
Experiment [4] relates to KM12 colon.
Experiment [5] has as its system RXF 393 renal.
Experiment [6] concerns M14 melanoma.
Experiment [7] deals with MDA-MB-435.
Experiment [8] has as its system HT29 colon.
Experiment [9] has as its system MALME-3M melanoma.
Experiment [10] relates to HOP-62 NSCLC.

SMILES strings stand for the structures. Several values for one entry are separate records, joined by “and”; a condition that tells them apart may be missing. Identical values can stand only once.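 48-hour exposure; five concentrations; linearly interpolated endpoints. At the GI50, growth is halved. TGI: concentration producing complete growth inhibition.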

For `COC(=O)c1c[nH]c2cc(OC(C)C)c(OC(C)C)cc2c1=O`, the GI50 in experiment [1] is over 100 µM; in experiment [2] it was over 100000 nM; in experiment [3], over 100 µM; in experiment [4] it was over 100000 nM; in [5], over 100000 nM; in [6], over 100000 nM. Further, the GI50 in experiment [7] is over 100000 nM; in experiment [8], over 100000 nM; in experiment [9], over 100000 nM; in [10], 79600 nM. Besides, the TGI in [1], in [2], in experiment [3], in experiment [4], in [5] and in [6] was over 100 µM throughout. The TGI in experiment [7], in experiment [8], in experiment [9] and in experiment [10] was over 100 µM throughout.
With `Cc1ccc(N(C=O)c2c([N+](=O)[O-])cc([N+](=O)[O-])c3c2=[N+]([O-])CN=3)cc1`, the TGI in [1] was over 100 µM; in [2] it was over 100 µM; in [3], over 100 µM; in experiment [4] it was over 100 µM; in experiment [5], 42 µM; in experiment [6], 44.8 µM. Further, the TGI in experiment [7] was over 100 µM; in experiment [8], over 100 µM; in [9] it was 43.1 µM; in experiment [10] it was over 100 µM.
In the case of `COc1cccc(Nc2ncnc3cc(NC(=O)CCl)ccc23)c1`, the GI50 in experiment [1] is 1.56 µM; in experiment [2] it was 1520 nM; in [3] it was 1.42 µM; in experiment [4] it was 1360 nM; in experiment [5], 1460 nM; in experiment [6], 1390 nM. Besides, the GI50 in experiment [7] is 821 nM; in experiment [8], 499 nM; in [9], 1070 nM; in experiment [10], 1480 nM. In addition, the TGI in experiment [1] turned out to be 4.49 µM; in experiment [2], 2.92 µM; in experiment [3], 3.24 µM; in experiment [4], 2.9 µM; in [5], 2.94 µM; in experiment [6], 3 µM. For the same compound, the TGI in experiment [7] turned out to be 2.21 µM; in [8], 1.85 µM; in experiment [9], 2.51 µM; in [10], 3.06 µM.
As to `C/C=C(\N=C=S)C(=O)OC1C(COC(C)=O)OC([C@]2(O)CC(=O)C(=N)C(C(=O)O)=C2O)C(O)C1OC1CC(OC)C(O)([C@@H](C)OC(=O)[C@@H](C)CC)C(C)O1` (some centres not stated), the TGI in experiment [1] was determined as 30.3 µM; in [2] it was 17.5 µM; in experiment [3], 23.2 µM; in experiment [4], 19.9 µM; in [5], 15.5 µM; in [6] it was 30.9 µM. Besides, the TGI in experiment [7] turned out to be 35.7 µM; in [8], 23.6 µM; in experiment [9] it was 22.8 µM; in [10], 45.7 µM.
For the compound `COc1cccc2c1C(=O)c1c(O)c3c(c(O)c1C2=O)C[C@@](O)(C(=O)CO)CC3OC1CC(N)C(OC2CCCCO2)C(C)O1` (some centres not stated), the GI50 in experiment [1] is 0.156 µM; in experiment [2], 3.52 nM; in experiment [3], 0.00705 µM; in experiment [4], 1190 nM; in experiment [5] it was 120 nM; in experiment [6], 52.9 nM. Also, the GI50 in experiment [8] was 38.1 nM; in experiment [9], 3.77 nM; in experiment [10], 2.9 nM. Besides, the TGI in experiment [1] was 1.02 µM and 7.26 µM; in [4], 0.583 µM and 3.09 µM; in [7], 0.229 µM; in experiment [8], 1.81 µM and 17.1 µM.
Take `C#C[C@@]1(O)[C@@H](CO)O[C@@H](n2cc(Br)c3c(Cl)ccnc32)[C@@H]1O`: the GI50 in experiment [1] is 17.3 µM; in experiment [2], 357 nM; in experiment [3] it was 10.5 µM; in experiment [4], 45200 nM; in [5], 283 nM; in experiment [6], 17000 nM. Besides, the GI50 in [7] was 8060 nM; in [8] it was 964 nM; in experiment [9] it was 32300 nM; in experiment [10] it was 1310 nM. Besides, the TGI in experiment [1] was over 100 µM; in experiment [2] it was 11.1 µM; in experiment [3], over 100 µM; in [4] it was over 100 µM; in experiment [5], 1.23 µM; in experiment [6], over 100 µM. The TGI in [7], in experiment [8], in experiment [9] and in experiment [10] was over 100 µM each time.
With `COc1cccc2c1C(=O)c1c(O)c3c(c(O)c1C2=O)C[C@@](O)(/C(CO)=N/NC(=O)CCCCCN1C(=O)C=CC1=O)C[C@@H]3O[C@H]1C[C@H](N)[C@H](O)[C@H](C)O1`, the GI50 in experiment [1] is 3.1 µM; in experiment [2] it was 734 nM; in experiment [3] it was 0.648 µM; in [4], 1980 nM; in [5], 984 nM; in [6], 1060 nM. In addition, the GI50 was 2030 nM in experiment [7], 1370 nM in experiment [8], 395 nM in experiment [9] and 674 nM in experiment [10]. In addition, the TGI in [1] is over 75.9 µM; in experiment [2], 7.82 µM; in experiment [3] it was 12.4 µM; in experiment [4], over 100 µM; in [5] it was 3.85 µM; in [6], 11 µM. In addition, the TGI was determined as 13.4 µM in experiment [7], 13.2 µM in experiment [8], 2.23 µM in experiment [9] and 10.5 µM in [10].
Turning to `Cc1cc(O)ccc1C1=NN(c2ccc(S(N)(=O)=O)cc2)C(=O)CC1`, the GI50 is 3.87 µM and 19.2 µM in experiment [1]; 6660 nM and 19400 nM in experiment [2]; 10.1 µM and 25.5 µM in [3]; 2890 nM and 6490 nM in experiment [4]; 6310 nM and 13700 nM in [5]; 2550 nM and 4480 nM in experiment [6]. The GI50 in experiment [7] is 994 nM and 1730 nM; in experiment [8], 2520 nM and 4650 nM; in experiment [10] it was 12800 nM and 25000 nM. Moreover, the TGI in experiment [1] was 50 µM and > 100 µM; in experiment [2] it was 50 µM and > 100 µM; in experiment [3], 50 µM and > 100 µM; in experiment [4] it was 50 µM and > 100 µM; in experiment [5] it was 50 µM and 42.1 µM; in experiment [6] it was 50 µM and 81.4 µM. The TGI in experiment [7] was 4.35 µM and 5.48 µM; in experiment [8], 50 µM and > 100 µM; in experiment [9], 50 µM and 59.7 µM; in experiment [10] it was 46 µM and 86.9 µM.
Take `C[C@]12CC[C@H](O[C@@H]3O[C@H](CO[C@@H]4O[C@H](CO)[C@@H](O)[C@H](O)[C@H]4O)[C@@H](O)[C@H](O)[C@H]3O)C[C@@H]1CC[C@@H]1[C@@H]2CC[C@]2(C)[C@@H](C3=CC(=O)OC3)CC[C@]12O`: the TGI in [1] was 40.4 µM; in [2], 33.2 µM; in experiment [3] it was 29.5 µM; in experiment [4], over 100 µM; in experiment [5] it was 41.1 µM; in experiment [6], 62.9 µM. Further, the TGI in experiment [7] is over 100 µM; in experiment [8], over 100 µM; in [9], 38.1 µM; in experiment [10], 31.1 µM.
For the compound `COC(=O)C1C(C(=O)O)C2(c3ccccc3)C(=O)C1(c1ccccc1)C(c1ccccc1)=C2c1ccccc1` (configuration not stated), the GI50 in [1] was 18.8 µM; in experiment [2] it was 19500 nM; in experiment [3], 20 µM; in experiment [4] it was 16000 nM; in [5] it was 16800 nM; in experiment [6], 19600 nM. Also, the GI50 in [7] was 24400 nM; in experiment [9], 26800 nM; in experiment [10], 21200 nM. Besides, the TGI in [1] came out at 42.3 µM; in experiment [2], 36.3 µM; in experiment [3] it was 53.1 µM; in experiment [4] it was 38 µM; in [5], 36.3 µM; in experiment [6], 35.7 µM. The TGI in experiment [7] worked out at 58.9 µM; in experiment [9], 59.3 µM; in [10], 41.4 µM.
Turning to `COc1cc(-c2nn(-c3ccc(NC(=O)Nc4cc(C(F)(F)F)cc(C(F)(F)F)c4)cc3)cc2-c2ccncc2)ccc1Cl`, the GI50 in [1] is 1.43 µM; in [2] it was 1640 nM; in experiment [3], 2.47 µM; in experiment [4], 1340 nM; in experiment [5], 1610 nM; in [6], 1990 nM. Besides, the GI50 is 1880 nM in [7], 3310 nM in experiment [8] and 1510 nM in experiment [10]. The TGI in [1] was found to be 3.48 µM; in experiment [2], 3.71 µM; in experiment [3], 7.3 µM; in [4], 3.09 µM; in experiment [5], 3.58 µM; in experiment [6], 4.23 µM. In addition, the TGI was 3.99 µM in [7], 12.3 µM in experiment [8] and 3.1 µM in [10].
Turning to `O=S1(=O)c2ccccc2N(c2ccccc2)c2nnnn21`, the TGI was over 100 µM in [1]; 35.7 µM in experiment [2]; over 100 µM in experiment [3]; over 100 µM in experiment [4]; 49.5 µM in experiment [5]; 54.5 µM in experiment [6]. Also, the TGI in [7] was over 100 µM; in experiment [8], 67.8 µM; in experiment [10], 45.9 µM.
